From patent US20210048439A1, “CAGED AMINO ACIDS FOR CONTROLLED METABOLIC INCORPORATION AND METHODS OF USE” (University of Washington, priority 2018, published 2021)

Assays:
HeLa cells [1] = test: Metabolic labeling of Met-depleted HeLa cells; Aha incorporation quantified by protein fluorescence (FAM-BCN, SDS-PAGE); assay type: cell-based
Method: Subsequent irradiation with UV light (λ=365 nm, 10 mW cm^−2, 5 min) yielded photoliberated Aha for metabolic incorporation. Two hours after light exposure, cells were lysed and their proteins were treated with a bicyclononyne-modified fluorescein (FAM-BCN, 100 nM, FIG. 2E) to introduce a fluorescent label by SPAAC. Protein fluorescence was then used to quantify the extent of Aha incorporation following protein separation by sodium dodecyl sulfate polyacrylamide gel electrophoresis (SDS-PAGE).
To control the extent of ncAA incorporation into newly synthesized proteins, NPPOC-Aha concentration was varied (0-250 μM) and the intensity of light irradiation (0-10 mW cm^−2) employed during photo-uncaging. […] To determine the potential effects of UV irradiation on metabolic incorporation, labeled protein fluorescence was compared for samples treated with Aha (50 μM)+/−light (10 mW cm^−2, 5 min) (FIG. 3D).
For in vitro work, borosilicate well plates (Mattek, P35G-1.5-14-C) were pretreated with high glucose Dulbecco's Modified Eagle Media (DMEM) supplemented with fetal bovine serum (FBS, 10%) and penicillin-streptomycin (PS, 1%). Plates were incubated at 37° C. for 10 minutes. HeLa cells were cultured on tissue culture polystyrene before seeding on borosilicate glass. After cells reached the desired confluency (50-60% for imaging; 80-90% for lysate analysis), cells were subjected to the following experiments.
Cells were rinsed with warm 1× Dulbecco's phosphate buffered saline (DPBS) and starved of methionine (Met) by the addition of Met-depleted media (1 h, 37° C.). Met-depleted media was prepared by adding L-cystine-2HCl (0.2 mM), L-glutamine (4 mM), and sodium pyruvate (1 mM) to depleted media (Fisher, 21013024). Media was removed and cells were treated with media containing NPPOC-Aha at the desired concentration (0-250 μM). Control media consisted of Aha or Met in the place of NPPOC-Aha. Cells were then irradiated with light (365 nm, 1-10 mW/cm2, 5 min). The cultures were then incubated (2 h, 37° C.) to promote Aha incorporation. The cells were then washed with 1×DPBS (37° C.).
Samples were prepared for sodium dodecyl sulfate polyacrylamide gel electrophoresis (SDS-PAGE) by lysing cells in lysis buffer (10 mM PO4, pH 7.0, 0.5% sodium dodecyl sulfate). Proteins were collected and immediately placed on ice. Free thiols were capped by the addition of iodoacetamide (10 mM, 30 min, room temperature). Azide-containing proteins were labeled by treatment with FAM-BCN (10 μM, 5 hours, room temperature). Excess FAM-BCN was removed by precipitating proteins with 4× sample volume of cold acetone (−20° C.). Lysates were incubated in acetone (1 h, −20° C.) and then subjected to centrifugation (14,000×g, 10 min). Proteins were redissolved in lysis buffer with gentle heating (40° C., 10 min), precipitated once more, and washed with 4× sample volume acetone before drying (20 min). Proteins were then dissolved in SDS-PAGE sample buffer (50 mM Tris-HC, 2% SDS, 10% glycerol, 12.5% β-mercaptoethanol, 0.025% bromophenol blue). Proteins were electrophoretically separated by a 12% polyacrylamide gel by applying a potential of 105 V. After electrophoresis, gels were scanned on a Typhoon FLA9000 fluorescent gel scanner before being stained with coomassie dye.

HeLa cells [2] = test: Fluorescent labeling of phototagged fixed cells (confocal imaging); assay type: cell-based; settings: NPPOC-Aha 100 μM in the absence of light
Method: Building on the capability to fluorescently tag cellular lysates as well as isolate species of interest via laBONCAT, the technique's unique ability to label newly synthesized proteins in vitro with spatial control was investigated; this method could be applied to the isolation of proteins […] at user-specified times and locations from heterogeneous features in tissue culture, especially tissue slices. HeLa cells were treated with NPPOC-Aha (100 μM) and exposed to light (λ=365 nm, 10 mW cm^−2, 5 min). Two hours after exposure, cells were fixed, permeabilized, and treated with FAM-BCN (100 nM) to introduce a fluorescent label via SPAAC.
To fluorescently label Aha-tagged proteins for visualization, cells were rinsed with warm 1×DPBS (37° C.) before fixing with formaldehyde (4%, 10 min, room temperature). Fixed cells were rinsed with 1×DPBS, and permeabilized with Triton™ X-100 (Sigma, 0.5%, 2 min, room temperature). Cells were then washed (3×, 5 min each) with 1×DPBS. Azides were labeled by strain-promoted azide-alkyne cycloaddition (SPAAC) with FAM-BCN (100 nM, 30 min, room temperature) in the dark. Next, labeled cells were washed (3×, 5 min each) with 1×DPBS prior to imaging on a Leica SP8X laser scanning confocal microscope.

HeLa cells [3] = test: Spatial labeling of phototagged cells in 3D tissue culture (PEG hydrogel, slitted photomask); assay type: cell-based; settings: cells in oxime-based PEG hydrogels (7 wt %), irradiated through slitted photomask
Description: Cells were encapsulated in oxime-based poly(ethylene glycol) hydrogels (7 wt %), treated with NPPOC-Aha and selectively irradiated through a slitted photomask. Cells were fixed and fluorescently labeled with FAM-BCN, phalloidin, and Hoechst. […] FAM fluorescence decreased exponentially away from exposed regions in a diffusion-predicted manner. Actin and DNA staining lack substantial patterning (FIG. 4).
HeLa cells were liberated from the tissue culture plate with trypsin, resuspended in FBS-supplemented DMEM, and pelleted by centrifugation. The cells were then gently resuspended in depleted media containing the photocaged Aha. Hydrogel precursors (10 k PEG functionalized with alkoxyamines or benzaldehyde) were combined (1:1 benzaldehyde:alkoxyamine stoichiometry) with cells prior to deposition on a glass-bottomed well plate (7 wt %, 10 mM aniline, 5 million cells/mL). After the gel had formed (30 min), it was inundated with depleted media containing […] (100 μM 30 min). Excess media was removed by aspiration and a subsection of the gel was irradiated with light (365 nm, 10 mW/cm2, 5 min) through a slitted photomask. Gels were washed with warm 1×DPBS (37° C., 15 min) before fixing with formaldehyde (4%, 1 hr, room temperature). Fixed cells were rinsed with 1×DPBS, and permeabilized with Triton™ X-100 (Sigma, 0.5%, 1 hr, room temperature). Cells were then washed (3×, 1 hr each) with 1×DPBS. […]

HeLa cells [4] = test: NPPOC-Aha in vitro stability in media with HeLa cells; assay type: in vitro ADME
Method: To assess its in vitro stability, NPPOC-Aha (100 μM) was incubated in media with HeLa cells for 0-4 hr prior to light exposure (10 mW cm^−2, 5 min) and subsequent metabolic labeling (2 hr). […] Such stability is useful in sampling biological systems, as it decouples media swaps from proteome labeling, allowing researchers to standardize their experimental conditions.
The stability of NPPOC-Aha was conducted using the above protocols for cell culture and SDS-PAGE with minor modifications. Instead of irradiating samples immediately following addition of NPPOC-Aha media, NPPOC-Aha was incubated in the presence of cells for the desired time (0-4 hours) prior to light exposure. Met (3.33 μM) was added to all media, yielding a 30:1 ratio of NPPOC-Aha:Met5.

[5] = NPPOC-Aha photo-uncaging (photolysis) kinetics by HPLC; assay type: physicochemical
Description: For this system to be effective, the kinetics of NPPOC uncaging should be rapid, such that the liberation of free Aha is not rate limiting compared with the biological processes under study. To determine its photolysis kinetics, NPPOC-Aha (dissolved in H2O:CH3CN, 50:50) was irradiated with collimated UV light (λ=365 nm, 10 mW cm^−2, 0-600 s exposure). Degradation products were quantitatively analyzed by HPLC, with elution fractions compositionally identified by mass spectrometry.
To determine the kinetics of NPPOC-Aha uncaging upon UV light exposure, NPPOC-Aha (3.4 mM dissolved in 50:50 dH2O:CH3CN) was placed in quartz NMR tubes and irradiated with collimated UV light (365 nm, 10 mW/cm^2) emanating from an OmniCure (series 1500; light intensity measured with Cole-Palmer series 9811 radiometer). Time points were collected every 120 s for a total of 600 s. The resulting degradation products were separated by reverse-phase HPLC, eluting with a CH3CN/dH2O gradient ramping from 5% to 100% CH3CN over 55 minutes. Remaining NPPOC-Aha was identified by HRMS (ESI+). Calculated for C14H18N5O6 [M+1H]+, 352.1257; observed 352.1259 (Δ=0.5 ppm). The HPLC peak corresponding to starting material was integrated and monitored over time.

[6] = control media with Aha or Met in place of NPPOC-Aha

Row | Aha incorporation after pre-incubation, irradiated samples (HeLa cells [4]; 100 μM, 0-4 hr in media with HeLa cells, then light) | working time (stability in media with cells) (HeLa cells [4]; NPPOC-Aha 100 μM incubated with HeLa cells 0-4 hr before light (10 mW cm^−2, 5 min), labeling 2 hr) | NPPOC cleaved ([5]; after 5 minutes of irradiation, 365 nm, 10 mW cm-2) | SMILES | effect of UV irradiation on protein labeling (HeLa cells [1]; Aha 50 μM +/− light (10 mW cm^−2, 5 min)) | protein fluorescence (extent of Aha incorporation) (HeLa cells [1]; [6]) | free Aha concentration above which normalized incorporation plateaus (HeLa cells [1]; incorporation normalized for expected liberated Aha predicted by the photokinetics) | extent of fluorescent labeling of fixed cells (HeLa cells [2]) | cellular FAM signal pattern (patterned Aha incorporation) (HeLa cells [3]) | Aha incorporation as function of NPPOC-Aha concentration (HeLa cells [1]; NPPOC-Aha 0-250 μM, given exposure condition) | protein fluorescence (extent of Aha incorporation) (HeLa cells [1]; NPPOC-Aha 250 μM, UV-treated (365 nm, 10 mW cm^−2, 5 min), lysis 2 h after exposure) | protein fluorescence (extent of Aha incorporation) (HeLa cells [1]; NPPOC-Aha 250 μM, non-irradiated) | dependence of protein labeling on mode of irradiation (HeLa cells [1]; NPPOC-Aha irradiated separately or during incubation with cells) | incorporation of irradiated NPPOC-Aha compared with Aha (HeLa cells [1]; each at 100 μM, NPPOC-Aha + light) | metabolic labeling as function of light intensity (HeLa cells [1]; low NPPOC-Aha concentrations, 0-10 mW cm^−2) | Aha incorporation after pre-incubation, non-irradiated samples (HeLa cells [4]; 100 μM, 0-4 hr in media with HeLa cells, no light) | first-order decay constant for NPPOC photolysis ([5]; H2O:CH3CN 50:50, collimated UV λ=365 nm, 10 mW cm^−2, 0-600 s)
1 | – | – | – | [N-]=[N+]=NCC[C@H](N)C(=O)O [Aha, L-Azidohomoalanine, reference compound] | no statistical difference | significant fluorescent enhancement | about 50 μM | – | – | – | – | – | – | – | – | – | –
2 | extent decreased over time | > 4 h | 90% | CC(COC(=O)N[C@@H](CCN=[N+]=[N-])C(=O)O)c1ccccc1[N+](=O)[O-] (stereo partly drawn) [NPPOC-Aha, (2S)-4-azido-2-({[2-(2-nitrophenyl)propoxy]carbonyl}amino)butanoic Acid] | – | – | – | low-level labeling similar to Met | localized near exposed regions | increased with NPPOC-Aha concentration | significant fluorescent enhancement | lack of fluorescence | does not depend on whether NPPOC-Aha is irradiated separately or during incubation with cells | slightly less incorporation than Aha alone | increased with light intensity | did not show increased incorporation over time | 0.0075 ± 0.0002 s⁻¹
3 | – | – | – | CSCC[C@H](N)C(=O)O [Met, L-methionine, reference compound] | – | lack of fluorescence | – | – | – | – | – | – | – | – | – | – | –
